Data reported in article PMC11676817, “Antiproliferative and Morphological Analysis Triggered by Drugs Contained in the Medicines for Malaria Venture COVID-Box Against Toxoplasma gondii Tachyzoites” (Microorganisms, 2024).
Read-outs that look alike come from different tables or passages of the source.

Experiments:
[1] = system: Toxoplasma gondii tachyzoites of the RH strain; test: microbe, parasite or virus in culture; assay type: cell-based; conditions: for activity at […]: 250 nM; for activity at 0.5 µM: 500 nM; for activity at 1 µM: 1000 nM
T. gondii tachyzoites [2] = test: Immunofluorescence microscopy of treated tachyzoites (aberrant cell division, rhoptry morphology); conditions: 24 h; for PVs with parasites with aberrant division: IMC1 and DAPI labeling; for Effect on tachyzoite morphology and cell division (fluorescence microscopy): 125 nM; for Vacuoles with aberrant parasites: […] (250 nM)
Protocol: Rabbit anti-IMC1 (1:1000) and anti-ARO (1:1000) (kindly provided by Dr. Dominique Soldati, Universite de Geneve, Switzerland) were used to label the mother cell and daughter cell pellicles throughout the endodyogeny process and rhoptries, respectively. Mouse anti-SAG1 (1:200; kindly donated by Dr. Tiago Mineo, Universidade Federal de Uberlândia) was used to label the parasite plasma membrane. DAPI (2 µg/mL; Sigma-Aldrich, St. Louis, MO, USA) was used to label the DNA. […] After labeling with antibodies, the coverslips were mounted onto slides using Prolong gold (Life Technologies), and samples were examined on a Zeiss Axio Observer Z1 microscope (Baden-Württemberg, Germany) or Olympus BX60 microscope (Shinjuku City, Tokyo, Japan).

T. gondii tachyzoites [3] = conditions: cited from earlier work
[4] = cited from earlier work
[5] = Cytotoxicity assay in NHDF cells (MTS); conditions: human
[6] = system: Toxoplasma gondii tachyzoites of the RH strain; test: microbe, parasite or virus in culture; conditions: 168 h
[7] = system: Toxoplasma gondii tachyzoites of the RH strain; conditions: 7 days of treatment
in vitro = conditions: human
T. gondii tachyzoites [8] = test: Transmission electron microscopy of treated tachyzoites; assay type: cell-based, Toxoplasma gondii
Protocol: NHDF cultures infected with T. gondii were treated with compounds and fixed with 2.5% glutaraldehyde (EM Grade—Ted Pella Inc., Redding, CA, USA) in 0.1 M sodium cacodylate buffer pH 7.4 (Ted Pella Inc.). Cells were post-fixed with 1% osmium tetroxide, 1.25% potassium ferrocyanide, and 5 mM CaCl2, in 0.1 M sodium cacodylate buffer (pH 7.4). The sample fixation and processing for microscopy were performed as previously described. Samples were dehydrated in alcohol solutions of increasing concentrations (35–100%) and embedded in epoxy resin (Polybed 812, Polysciences). Ultrathin sections were collected in copper grids 300 mesh (Ted Pella Inc.), stained with uranyl acetate and lead citrate, and then observed in a Fei TecNai G2 120 kV Spirit Electron Microscope (FEI Company, Eindhoven, The Netherlands).

[9] = cited from earlier work; remark: listed apart in the source
[10] = Rat, cited from earlier work; for Cmax: read-out: Plasma concentration (Cmax)
[11] = cited from earlier work; remark: listed apart in the source
[12] = cited from earlier work; remark: listed apart in the source
[13] = parameters: method as in Table S3 supplementary ref 2; conditions: Mouse and Rat; ref Table S3 supplementary ref 2; cited from earlier work
[14] = parameters: method as in Table S3 supplementary ref 30; conditions: Rat and Monkey; ref Table S3 supplementary ref 30; cited from earlier work
[15] = estimated; ref [66]; cited from earlier work
[16] = in vivo; cited from earlier work
[17] = Rat; ref Table S3 supplementary ref 3; cited from earlier work
[18] = Toxoplasma gondii, 31.2 nM, 24 h of treatment, read-out: Proliferation index (%)
[19] = Toxoplasma gondii, 62.5 nM, 24 h of treatment, read-out: Proliferation index (%)
[20] = read-out: IC50 against T. gondii proliferation, RH strain, 7 days of treatment
[21] = read-out: IC50 (μM) in Tachyzoites, RH strain in NHDF cells, plaque assay
[22] = read-out: IC50 against T. gondii proliferation, RH strain
[23] = ref Table S3 supplementary refs 28, 32
[24] = ref Table S3 supplementary refs 3, 10, 12, 28, 32
[25] = Toxoplasma gondii, 24 h of treatment, read-out: Proliferation index (%)
[26] = published in vivo studies, ref Table S3
[27] = NHDF, read-out: IC50 (μM) in Tachyzoites, RH strain in NHDF cells, plaque assay, 7 days of treatment
[28] = Mice/Mouse, ref Table S3 supplementary refs 6, 16, 24, 27, 33
[29] = Human, ref Table S3 supplementary refs 1, 4, 8, 11, 13, 15, 17, 18, 19, 23, 31
[30] = read-out: Plasma concentration (Cmax), Human, ref Table S3 supplementary refs 1, 4, 8, 11, 13, 15, 17, 18, 19, 23

SMILES: CC(C)C[C@H](NC(=O)[C@H](Cc1ccccc1)NC(=O)c1cnccn1)B(O)O [Bortezomib]
- inhibition at 0.0312 µM ([1]; Toxoplasma gondii, 31.2 nM, 24 h, read-out: Inhibition of parasite proliferation): 75 to 80%
- activity at 0.0312 µM [1, 18]: 20.9%
- inhibition at 0.0625 µM ([1]; Toxoplasma gondii, 62.5 nM, 24 h, read-out: Inhibition of parasite proliferation): > 90%
- activity at 0.0625 µM [1, 19]: 9.23%
- PVs with parasites with aberrant division (T. gondii tachyzoites [2]; 31.2 nM): 23.6%
- PVs with parasites with aberrant division (T. gondii tachyzoites [2]; 62.5 nM): 48.0%
- EC50 (T. gondii tachyzoites [3]; 72 h of treatment, ref Cajazeiro et al. (2022) [24], read-out: EC50 against T. gondii): 220 nM
- IC50 (T. gondii tachyzoites [3]; 72 h of treatment, ref [34], read-out: IC50 in tachyzoites of T. gondii): 100 nM
- Cmax ([4]; human, in vivo): 148 nM
- Plasma concentration (Cmax) ([4]; human, in vivo): 56.7 ng/mL
- CC50 at 7 days [5]: 720 ± 240 nM
- IC50 [6, 20]: ≤ 0.03 µM
- IC50 [7, 21]: 0.03 µM
- IC50 [7, 22]: < 0.03 µM
- selectivity ratio at 7 days (in vitro): 24
- Effect on T. gondii ultrastructure (TEM) (T. gondii tachyzoites [8]; 62.5 nM, 48 h): affected the parasite cell division

SMILES: CC[C@@H](C(=O)[C@@H](C)[C@@H](O)[C@H](C)[C@@H]1O[C@@H]([C@@H](CC)C(=O)O)CC[C@@H]1C)[C@H]1O[C@]2(C=C[C@@H](O)[C@]3(CC[C@@](C)([C@H]4CC[C@](O)(CC)[C@H](C)O4)O3)O2)[C@H](C)C[C@@H]1C [Salinomycin]
- Plasma concentration (Cmax) ([9]; Mice, ref Table S3 supplementary ref 27): 13.2 ng/mL
- Cmax ([9]; read-out: Plasma concentration (Cmax), Mouse/Mice, ref Table S3 supplementary refs 16, 27): 17.6 nM
- Plasma concentration (Cmax) [10, 23]: 40 ng/mL
- Cmax [10, 24]: 53.3 nM
- activity at 0.0312 µM [1, 18]: 79.1%
- activity at 0.0625 µM [1, 19]: 21.9%
- activity at 0.125 µM ([1]; Toxoplasma gondii, 125 nM, 24 h of treatment, read-out: Proliferation index (%)): 14.4%
- inhibition at […] ([1]; Toxoplasma gondii, […] nM ([…] µM), 24 h, read-out: Inhibition of parasite proliferation): > 90%
- activity at […] [1, 25]: 6.38%
- Brain availability [11, 26]: confirmed
- Effect on tachyzoite morphology and cell division (fluorescence microscopy) (T. gondii tachyzoites [2]): vacuoles containing fragmented parasites
- IC50 [6, 20]: < 0.1 µM
- IC50 [6, 27]: 0.07 ± 0.01 µM
- Does it cross the blood-brain barrier or is found in the brain? [12, 28]: Yes
- CC50 at 7 days (in vitro): 1140 ± 170 nM
- selectivity ratio at 7 days (in vitro): 16
- Effect on T. gondii ultrastructure (TEM) (T. gondii tachyzoites [8]; 125 and […] nM, 24 h): extensive vacuolization process

SMILES: CCN1CCN(Cc2ccc(Nc3ncc(F)c(-c4cc(F)c5nc(C)n(C(C)C)c5c4)n3)nc2)CC1 [Abemaciclib]
- Brain availability [11, 26]: confirmed
- Plasma concentration (Cmax) [4, 29]: 492 ng/mL
- Cmax [4, 30]: 971 nM
- IC50 [6, 20]: < 0.1 µM
- IC50 [6, 27]: 0.09 ± 0.01 µM
- Does it cross the blood-brain barrier or is found in the brain? [13]: Yes

SMILES: CNC(=O)c1cc(Oc2ccc(NC(=O)Nc3ccc(Cl)c(C(F)(F)F)c3)cc2)ccn1 [Sorafenib]
- Plasma concentration (Cmax) ([10]; ref Table S3 supplementary ref 29): 2410 ng/mL
- Cmax ([10]; ref Table S3 supplementary refs 21, 29): 5200 nM
- Brain availability [11, 26]: confirmed
- Does it cross the blood-brain barrier or is found in the brain? [14]: Yes
- Plasma concentration (Cmax) [4, 29]: 1001.3 ng/mL
- Cmax ([4]; read-out: Plasma concentration (Cmax), Human, ref Table S3 supplementary refs 20, 22, 25, 31): 2200 nM
- IC50 [6, 27]: 0.56 ± 0.03 µM

SMILES: Cc1cccc(/C=N/Nc2cc(N3CCOCC3)nc(OCCc3ccccn3)n2)c1 [Apilimod]
- Cmax ([9]; mouse, in vivo): 2530 nM
- Inhibition of parasite proliferation, in words ([1]; 0.5–1 µM, 24 h): modest inhibition
- activity at 0.5 µM [1, 25]: 99.7%
- activity at 1 µM [1, 25]: 73.2%
- Brain availability ([11]; in vivo): confirmed
- IC50 [6, 27]: 0.22 ± 0.06 µM
- Does it cross the blood-brain barrier or is found in the brain? ([12]; mouse, in vivo): Yes
- CC50 at 7 days (in vitro): 2120 ± 120 nM
- selectivity ratio at 7 days (in vitro): 10

SMILES: COc1ccc2cc1Oc1ccc(cc1)C[C@H]1c3cc(c(OC)cc3CCN1C)Oc1c(OC)c(OC)cc3c1[C@H](C2)N(C)CC3 [Tetrandrine]
- Plasma concentration (Cmax) [10, 23]: 237.10 ng/mL
- Cmax [10, 24]: 381 nM
- Brain availability [11, 26]: confirmed
- IC50 [6, 27]: 0.35 ± 0.07 µM
- Does it cross the blood-brain barrier or is found in the brain? [12, 28]: Yes
- CC50 at 7 days (in vitro): 4770 ± 8250 nM
- selectivity ratio at 7 days (in vitro): 14

SMILES: CO[C@@H]1[C@H](N(C)C(=O)c2ccccc2)C[C@H]2O[C@]1(C)n1c3ccccc3c3c4c(c5c6ccccc6n2c5c31)C(=O)NC4 [Midostaurin]
- Oral bioavailability [15]: > 90%
- activity at […] [1, 25]: 23.1%
- activity at 0.5 µM [1, 25]: 24.3%
- activity at 1 µM [1, 25]: 24.9%
- Vacuoles with aberrant parasites (T. gondii tachyzoites [2]): more than 80%
- Vacuoles with aberrant parasites (T. gondii tachyzoites [2]; listed as midostaurin): around 80%
- Plasma concentration (Cmax) [4, 29]: 1210 ng/mL
- Cmax [4, 30]: 2120 nM
- CC50 at 7 days [5]: 240 ± 20 nM
- IC50 [6, 27]: 0.08 µM
- Effect on T. gondii ultrastructure (TEM) (T. gondii tachyzoites [8]; 250 µM as printed, 48 h): drastic effects on the parasite ultrastructure

SMILES: Nc1nc(Nc2ccc3c(c2)CC[C@@H](N2CCCC2)CC3)nn1-c1cc2c(nn1)-c1ccccc1CCC2 [Bemcentinib]
- Brain availability ([11]; in vivo): confirmed
- Does it cross the blood-brain barrier or is found in the brain? [16]: Yes
- Cmax ([4]; human, in vivo): 105 nM
- Plasma concentration (Cmax) ([4]; human, in vivo): 53 ng/mL
- IC50 [6, 27]: 0.15 ± 0.03 µM
- CC50 at 7 days (in vitro): 970 ± 150 nM
- selectivity ratio at 7 days (in vitro): 6

SMILES: COc1ccc(C[C@H]2NC[C@H](O)[C@H]2OC(C)=O)cc1 [(-)-Anisomycin]
- Plasma concentration (Cmax) ([10]; ref Table S3 supplementary refs 3, 10, 12, 21): 2.75 ng/mL
- Proliferation index (%) ([1]; 62.5 nM, 24 h of treatment): 60.56%
- Proliferation index (%) ([1]; 125 nM, 24 h of treatment): 22.63%
- Brain availability [11, 26]: confirmed
- PVs with parasites with aberrant division (T. gondii tachyzoites [2]; 62.5 nM): 22.5%
- Effect on tachyzoite morphology and cell division (fluorescence microscopy) (T. gondii tachyzoites [2]): complete arrestment of cell division
- IC50 (T. gondii tachyzoites [3]; 48 h of treatment, ref Fichera, Bhopale, and Ross (1995) [43], read-out: IC50 against T. gondii): 10 nM
- IC50 [7, 21]: 0.02 µM
- IC50 [7, 22]: ≤ 0.03 µM
- Effect on T. gondii ultrastructure (TEM) (T. gondii tachyzoites [8]; 100 nM, 48 h): alteration of the ER architecture
- Does it cross the blood-brain barrier or is found in the brain? [17]: Yes

SMILES: CNC(=O)c1cc(Oc2ccc(NC(=O)Nc3ccc(Cl)c(C(F)(F)F)c3)c(F)c2)ccn1 [Regorafenib]
- Brain availability ([11]; in vivo): confirmed
- Does it cross the blood-brain barrier or is found in the brain? [16]: Yes
- Cmax ([4]; human, in vivo): 3900 nM
- Plasma concentration (Cmax) ([4]; human, in vivo): 1900 ng/mL
- IC50 [6, 27]: 0.25 ± 0.04 µM
- CC50 at 7 days (in vitro): 3030 ± 10 nM
- selectivity ratio at 7 days (in vitro): 12
